# Results published in article PMC9877462, “Real time monitoring and evaluation of the inhibition effect of fucoxanthin against α-amylase activity by using QCM-A” (Frontiers in Nutrition, 2023).
# Target: T1, α-amylase (from human saliva, EC 3.2.1.1) (Homo sapiens, UniProt P0DUB6)
# T1 construct: gene AMY1A
# T1 sequence (P0DUB6 16-511): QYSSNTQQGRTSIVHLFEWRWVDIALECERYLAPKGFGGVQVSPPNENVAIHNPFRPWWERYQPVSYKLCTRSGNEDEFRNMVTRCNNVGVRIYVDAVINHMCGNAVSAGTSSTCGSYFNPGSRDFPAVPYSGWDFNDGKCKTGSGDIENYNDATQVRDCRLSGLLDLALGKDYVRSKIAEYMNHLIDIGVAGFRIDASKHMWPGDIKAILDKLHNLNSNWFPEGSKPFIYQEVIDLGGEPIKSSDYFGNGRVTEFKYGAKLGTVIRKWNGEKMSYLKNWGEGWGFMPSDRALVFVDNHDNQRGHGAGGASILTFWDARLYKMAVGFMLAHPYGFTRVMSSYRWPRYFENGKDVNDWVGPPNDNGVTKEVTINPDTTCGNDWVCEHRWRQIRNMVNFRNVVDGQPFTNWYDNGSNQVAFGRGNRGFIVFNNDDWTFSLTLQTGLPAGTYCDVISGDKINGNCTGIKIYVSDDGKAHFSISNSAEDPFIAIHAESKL
# Experiment: Enzyme inhibition kinetics (Lineweaver-Burk and Dixon plots) with amylose substrate; amylose-immobilized QCM-A hydrolysis assay
# Format: biochemical
compound,measurement,value
CC(=O)O[C@H]1CC(C)(C)C(=C=C/C(C)=C/C=C/C(C)=C/C=C/C=C(C)/C=C/C=C(\C)C(=O)C[C@@]23O[C@]2(C)C[C@@H](O)CC3(C)C)[C@](C)(O)C1 [fucoxanthin],Ki,36.3 µM
